The test system of the test is STING pathway. Nature of the test: STING pathway activation in THP1-Dual cells, NFκB pathway SEAP reporter. Format: cell-based. The conditions noted are these: Homo sapiens, NFκB pathway reporter (secreted embryonic alkaline phosphatase, QUANTI-Blue, 620 nm), 24-hour or 48-hour assay duration not specified. The protocol: STING pathway activation by the compounds described herein was measured using THP1-Dual™ cells. These cells are THP1 monocytes that have been modified to be reporters for the NFκB pathway (by inducing secreted embryonic alkaline phosphatase (SEAP) expression) and the IRF pathway (by inducing secreted luciferase (LUCIA)). Both of these pathways are activated by STING agonists in these cells.
THP1 Dualtm cells (obtained from Invivogen) are maintained in a cell growth medium that includes Roswell Park Memorial Institute medium (RPMI), 10% fetal calf serum (FCS), 100 U/ml Pen/Strep, 2 mM L-glut, 10 mM Hepes, and 1 mM sodium pyruvate. Prior to the assay, the cells were transferred to an assay medium that includes RPMI, 5% FCS, 100 U/ml Pen/Strep, 2 mM L-glut, 10 mM Hepes, and 1 mM sodium pyruvate. Cells were then counted and evaluated for viability by trypan blue exclusion assay.
The compounds of the present invention can be assayed using, for example, the following procedure. Compounds were dissolved in water or DMSO depending, for example, on their solubility in water or DMSO. […]
To carry out the secreted embryonic alkaline phosphatase reporter, 10 μL of cell supernatant was mixed with 90 μL of QUANTI-Blue in a flat-bottom 384 well plate. […] SEAP activity was measured using a spectrophotometer set at 620 nm. […] Luminescence of the wells was then measured.

What is called IC50 is the point on the concentration scale where inhibition reaches its midpoint. Low readings indicate inhibition by little substance, high ones a need for much substance. With `Nc1ncnc2c1ncn2[C@@H]1O[C@@H]2CNC(=O)N[C@H]3[C@@H](O)[C@H](n4cnc5c(N)ncnc54)O[C@@H]3CNC(=O)N[C@H]2[C@H]1O` [Compound 31, (2R,3R,3aS,7aR,9R,10R,10aS,14aR)-2,9-bis(6-amino-9H-purin-9-yl)-3,10-dihydroxydodecahydrodifuro[3,2-d:3′,2′-j][1,3,7,9]tetraazacyclododecine-5, 12(4H,6H)-dione], the half-inhibitory concentration (IC50) came to 22.2 µM.
In the case of `Nc1ncnc2c1ncn2[C@@H]1O[C@@H]2CNC(=S)N[C@H]3[C@@H](O)[C@H](n4cnc5c(N)ncnc54)O[C@@H]3CNC(=S)N[C@H]2[C@H]1O` [Compound 30, (2R,3R,3aS,7aR,9R,10R,10aS,14aR)-2,9-bis(6-amino-9H-purin-9-yl)-3,10-dihydroxydodecahydrodifuro[3,2-d:3′,2′-j][,3,7,9]tetraazacyclododecine-5,12(4H,6H)-dithione] it was 25.4 µM.

The record behind these values is patent US20190345191A1, “CYCLIC DINUCLEOTIDE ANALOGS FOR TREATING CONDITIONS ASSOCIATED WITH STING (STIMULATOR OF INTERFERON GENES) ACTIVITY” (Innate Tumor Immunity, Inc., priority 2016, published 2019).
